Holding throughout (assay type): binding
Test [1] has as its target T1, PDZ-domain polypeptide (GST/PDZ fusion protein) (Homo sapiens, UniProt Q9NRD5).
T1 construct: made in house; host or cells: E. coli (DH5alpha, BL21 or JM109)
Kind of test: Apparent affinity (Kd) by titration of PL peptide in the G assay. The following applies: PDZ PICK1, PDZ Domain 1. The gist of the method:
(§1)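 A fixed concentration of GST/PDZ fusion protein, 5 ug/ml by default, was mixed in solution with increasing labeled PL peptide (e.g. 0.1 uM-1 mM). Reaction times ranged from 10 minutes to 2 days at 4-37° C. Complexes were separated from free peptide and detected via the label as in the G assay, apparent affinity coming from the saturating concentration.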

Test [2] addresses T2, PDZ-domain polypeptide (GST/PDZ fusion protein) (Homo sapiens, UniProt Q12959).
T2 construct: made in house; host or cells: E. coli (DH5alpha, BL21 or JM109)
The description is as above. The procedure, abridged:
as §1

The target in test [3] is T3, PDZ-domain polypeptide (GST/PDZ fusion protein) (Homo sapiens, UniProt Q15700).
T3 construct: made in house; host or cells: E. coli (DH5alpha, BL21 or JM109)
T3 sequence (Q15700 whole entry, the tested form may be a part): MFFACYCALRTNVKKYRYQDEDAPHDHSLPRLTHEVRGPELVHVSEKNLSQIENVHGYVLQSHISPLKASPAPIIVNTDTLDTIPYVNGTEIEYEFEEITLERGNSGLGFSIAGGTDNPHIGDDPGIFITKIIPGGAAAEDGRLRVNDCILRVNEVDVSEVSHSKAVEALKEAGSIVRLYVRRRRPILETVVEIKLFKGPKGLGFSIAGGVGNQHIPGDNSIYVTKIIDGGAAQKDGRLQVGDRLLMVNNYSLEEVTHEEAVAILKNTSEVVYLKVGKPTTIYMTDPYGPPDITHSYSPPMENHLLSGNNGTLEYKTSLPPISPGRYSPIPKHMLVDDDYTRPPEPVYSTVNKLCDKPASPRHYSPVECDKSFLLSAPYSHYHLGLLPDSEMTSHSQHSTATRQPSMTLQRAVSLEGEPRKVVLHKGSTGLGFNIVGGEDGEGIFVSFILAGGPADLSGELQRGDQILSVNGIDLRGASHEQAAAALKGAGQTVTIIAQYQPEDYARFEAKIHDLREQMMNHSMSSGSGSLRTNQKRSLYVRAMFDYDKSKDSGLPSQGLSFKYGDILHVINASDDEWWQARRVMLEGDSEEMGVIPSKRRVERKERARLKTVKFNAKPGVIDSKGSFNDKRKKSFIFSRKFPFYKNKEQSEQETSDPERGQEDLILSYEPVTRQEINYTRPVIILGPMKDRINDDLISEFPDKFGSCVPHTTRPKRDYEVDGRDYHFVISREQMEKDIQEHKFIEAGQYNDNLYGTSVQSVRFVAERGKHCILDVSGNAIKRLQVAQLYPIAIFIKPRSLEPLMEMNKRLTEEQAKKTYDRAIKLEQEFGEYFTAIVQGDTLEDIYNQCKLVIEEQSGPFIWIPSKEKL
The test is described as above. The following applies: PDZ DLG2, PDZ Domain 2. The procedure, abridged: as §1

The target of test [4] is T4, PDZ protein (GST-PDZ fusion) (Rattus norvegicus, UniProt Q9JLU4).
T4 construct: made in house; host or cells: E. coli (DH5alpha, BL21 or JM109)
T4 sequence (Q9JLU4 whole entry, the tested form may be a part): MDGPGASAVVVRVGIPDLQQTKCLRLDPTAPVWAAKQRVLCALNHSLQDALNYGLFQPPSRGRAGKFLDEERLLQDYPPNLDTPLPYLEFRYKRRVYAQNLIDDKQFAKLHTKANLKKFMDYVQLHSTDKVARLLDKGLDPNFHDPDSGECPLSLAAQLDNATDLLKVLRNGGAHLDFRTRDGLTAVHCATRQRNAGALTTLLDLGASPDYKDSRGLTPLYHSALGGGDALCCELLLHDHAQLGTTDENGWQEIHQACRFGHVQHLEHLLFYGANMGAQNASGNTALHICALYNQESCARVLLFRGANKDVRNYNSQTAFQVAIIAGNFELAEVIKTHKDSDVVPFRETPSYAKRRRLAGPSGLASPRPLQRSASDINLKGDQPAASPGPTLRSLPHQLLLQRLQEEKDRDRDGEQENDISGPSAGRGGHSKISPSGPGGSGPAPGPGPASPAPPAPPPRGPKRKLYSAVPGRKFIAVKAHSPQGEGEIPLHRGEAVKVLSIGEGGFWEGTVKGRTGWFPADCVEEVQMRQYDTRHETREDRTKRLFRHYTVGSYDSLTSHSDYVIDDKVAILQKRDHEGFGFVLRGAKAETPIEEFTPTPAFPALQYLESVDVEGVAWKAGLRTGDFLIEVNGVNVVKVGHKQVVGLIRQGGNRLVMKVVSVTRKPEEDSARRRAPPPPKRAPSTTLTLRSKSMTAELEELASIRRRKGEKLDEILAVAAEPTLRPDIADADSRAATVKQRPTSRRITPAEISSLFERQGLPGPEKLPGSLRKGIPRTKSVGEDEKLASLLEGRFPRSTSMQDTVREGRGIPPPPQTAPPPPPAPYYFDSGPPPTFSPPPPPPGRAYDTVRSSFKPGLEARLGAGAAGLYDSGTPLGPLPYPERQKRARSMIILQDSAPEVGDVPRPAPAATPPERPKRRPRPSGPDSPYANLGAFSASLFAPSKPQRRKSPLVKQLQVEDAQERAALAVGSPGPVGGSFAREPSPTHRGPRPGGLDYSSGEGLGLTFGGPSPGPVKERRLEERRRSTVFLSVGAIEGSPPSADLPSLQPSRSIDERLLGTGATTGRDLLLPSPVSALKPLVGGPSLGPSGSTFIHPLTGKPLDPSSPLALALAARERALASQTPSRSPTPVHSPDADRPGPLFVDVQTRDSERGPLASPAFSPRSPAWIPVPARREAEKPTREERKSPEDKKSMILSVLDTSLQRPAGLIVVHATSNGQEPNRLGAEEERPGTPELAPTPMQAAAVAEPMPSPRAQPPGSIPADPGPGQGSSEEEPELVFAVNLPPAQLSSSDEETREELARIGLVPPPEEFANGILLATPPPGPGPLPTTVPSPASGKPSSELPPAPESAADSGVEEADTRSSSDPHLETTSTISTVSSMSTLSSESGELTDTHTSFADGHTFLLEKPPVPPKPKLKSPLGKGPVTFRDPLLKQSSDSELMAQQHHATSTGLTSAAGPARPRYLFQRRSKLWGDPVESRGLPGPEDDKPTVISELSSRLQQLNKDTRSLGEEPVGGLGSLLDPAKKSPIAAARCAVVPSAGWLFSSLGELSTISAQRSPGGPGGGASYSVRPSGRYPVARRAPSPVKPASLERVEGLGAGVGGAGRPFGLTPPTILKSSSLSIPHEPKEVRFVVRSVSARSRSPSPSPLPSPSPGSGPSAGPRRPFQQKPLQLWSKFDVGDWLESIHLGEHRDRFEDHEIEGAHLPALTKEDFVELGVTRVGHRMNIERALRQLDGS
Kind of test: G' assay (10 uM PL peptide), results of TABLE 7 and TABLE 12. The note with it: PDZ rat SHANK 3, PDZ Domain 1. The procedure, abridged: (§2)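 Binding classes derive from A450 nm of bound biotin-tagged PL peptide. A score of 5 needs A450 above 4 in more than two repeats.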

The target in test [5] is T5, PDZ protein (GST-PDZ fusion) (Homo sapiens, UniProt Q9ULD6).
T5 construct: made in house; host or cells: E. coli (DH5alpha, BL21 or JM109)
T5 sequence (Q9ULD6 1-942): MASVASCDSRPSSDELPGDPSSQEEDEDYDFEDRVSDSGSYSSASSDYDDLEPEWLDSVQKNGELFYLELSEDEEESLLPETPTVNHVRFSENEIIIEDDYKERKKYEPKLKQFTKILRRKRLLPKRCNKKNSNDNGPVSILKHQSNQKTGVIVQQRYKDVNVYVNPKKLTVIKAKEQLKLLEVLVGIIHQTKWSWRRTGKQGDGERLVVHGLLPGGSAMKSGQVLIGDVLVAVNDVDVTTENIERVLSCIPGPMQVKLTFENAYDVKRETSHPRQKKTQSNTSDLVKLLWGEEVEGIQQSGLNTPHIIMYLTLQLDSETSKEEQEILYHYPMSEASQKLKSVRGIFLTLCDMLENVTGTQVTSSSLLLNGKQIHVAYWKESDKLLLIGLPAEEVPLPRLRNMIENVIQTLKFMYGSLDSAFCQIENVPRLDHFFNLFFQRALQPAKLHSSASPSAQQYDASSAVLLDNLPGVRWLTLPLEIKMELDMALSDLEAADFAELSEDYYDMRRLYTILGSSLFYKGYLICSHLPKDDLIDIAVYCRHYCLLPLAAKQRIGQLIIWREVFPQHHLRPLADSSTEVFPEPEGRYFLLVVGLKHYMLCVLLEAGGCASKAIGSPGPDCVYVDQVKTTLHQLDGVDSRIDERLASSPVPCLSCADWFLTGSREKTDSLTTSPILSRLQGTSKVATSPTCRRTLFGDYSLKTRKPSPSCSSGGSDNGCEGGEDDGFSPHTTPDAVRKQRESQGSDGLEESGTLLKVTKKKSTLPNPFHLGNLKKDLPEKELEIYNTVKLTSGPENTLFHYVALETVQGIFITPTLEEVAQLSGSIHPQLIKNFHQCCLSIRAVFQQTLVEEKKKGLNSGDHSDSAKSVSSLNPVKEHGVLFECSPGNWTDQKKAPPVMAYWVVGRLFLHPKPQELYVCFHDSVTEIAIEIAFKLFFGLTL
The test is described as above. The note with it: PDZ KIAA1284, PDZ Domain 1. The procedure, abridged: as §2

Setting [6] is: read-out: Peptide Optimal Conc (Kd by titration of the PL peptide).

Experimental findings from US20050282743A1, “Molecular interactions in cells” (Arbor Vita Corporation, priority 2001, published 2005) are described below.

Like-named read-outs stand apart in the source and are kept apart here. Ends that are not written are not given here. Peptide text beside a SMILES is read from it. * marks the point of attachment. Biotin = O=C1N[C@H]2[C@H](CS[C@H]2CCCCC(=O)*)N1

T2 sequence (Q12959 whole entry, the tested form may be a part): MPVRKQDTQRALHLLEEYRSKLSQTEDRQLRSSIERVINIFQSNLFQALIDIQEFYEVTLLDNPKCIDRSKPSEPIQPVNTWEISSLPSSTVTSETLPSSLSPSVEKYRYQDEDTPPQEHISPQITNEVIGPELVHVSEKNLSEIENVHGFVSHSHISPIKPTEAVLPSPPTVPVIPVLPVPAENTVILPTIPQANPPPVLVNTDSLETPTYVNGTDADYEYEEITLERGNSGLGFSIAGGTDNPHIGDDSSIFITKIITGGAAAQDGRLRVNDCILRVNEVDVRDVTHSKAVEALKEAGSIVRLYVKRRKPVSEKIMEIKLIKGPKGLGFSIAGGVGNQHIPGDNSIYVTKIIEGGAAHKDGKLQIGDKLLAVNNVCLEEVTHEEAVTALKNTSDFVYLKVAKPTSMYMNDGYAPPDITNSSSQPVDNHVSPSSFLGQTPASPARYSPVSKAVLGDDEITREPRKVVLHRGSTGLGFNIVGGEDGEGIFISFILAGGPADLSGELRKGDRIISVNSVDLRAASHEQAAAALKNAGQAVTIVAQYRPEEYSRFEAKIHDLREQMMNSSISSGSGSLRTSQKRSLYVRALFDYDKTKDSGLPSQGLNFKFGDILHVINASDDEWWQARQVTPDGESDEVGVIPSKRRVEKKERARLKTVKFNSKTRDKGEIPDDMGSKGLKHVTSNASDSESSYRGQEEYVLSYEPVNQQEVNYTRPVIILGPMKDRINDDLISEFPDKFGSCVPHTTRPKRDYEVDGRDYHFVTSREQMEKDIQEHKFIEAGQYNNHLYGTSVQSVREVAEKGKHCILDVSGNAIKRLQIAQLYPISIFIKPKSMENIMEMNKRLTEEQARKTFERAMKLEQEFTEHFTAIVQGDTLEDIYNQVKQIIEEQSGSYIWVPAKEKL
T1 sequence (Q9NRD5 whole entry, the tested form may be a part): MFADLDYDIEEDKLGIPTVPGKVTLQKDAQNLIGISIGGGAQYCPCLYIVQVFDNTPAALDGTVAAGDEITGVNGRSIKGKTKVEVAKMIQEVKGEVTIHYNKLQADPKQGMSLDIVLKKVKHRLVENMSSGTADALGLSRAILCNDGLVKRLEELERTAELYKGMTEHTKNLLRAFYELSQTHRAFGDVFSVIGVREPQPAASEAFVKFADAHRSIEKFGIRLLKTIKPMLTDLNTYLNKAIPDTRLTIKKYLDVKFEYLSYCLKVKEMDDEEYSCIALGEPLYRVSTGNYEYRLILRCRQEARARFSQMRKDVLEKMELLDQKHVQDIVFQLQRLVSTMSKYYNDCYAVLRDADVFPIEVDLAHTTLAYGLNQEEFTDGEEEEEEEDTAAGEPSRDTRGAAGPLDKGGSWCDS

On to `CC(C)C[C@H](NC(=O)[C@H](Cc1c[nH]c2ccccc12)NC(=O)[C@H](Cc1c[nH]cn1)NC(=O)[C@H](CCCNC(=N)N)NC(=O)[C@H](CC(C)C)NC(=O)[C@@H](NC(=O)[C@H](Cc1ccccc1)NC(=O)[C@H](CCC(N)=O)NC(=O)[C@H](CCCNC(=N)N)NC(=O)[C@@H](NC(=O)[C@H](CCC(=O)O)NC(=O)CNC(=O)[C@H](CCCNC(=N)N)NC(=O)[C@H](CC(=O)O)NC(=O)[C@@H](NC(=O)[C@H](CC(C)C)NC(=O)[C@H](CCC(=O)O)NC(=O)[C@H](CCCNC(=N)N)NC(=O)CCCC[C@@H]1SC[C@@H]2NC(=O)N[C@@H]21)C(C)C)C(C)C)[C@@H](C)O)C(=O)N[C@@H](CCCCN)C(=O)N[C@H](C(=O)O)C(C)C` [Dopamine transporter (Na+-dependent)] (Biotin-RELVDRGEVRQFTLRHWLKV-OH; C-terminus assumed), for which the Kd in test [1] (setting [6]) is 900 nM.
For the molecule `CC[C@H](C)[C@H](NC(=O)[C@H](CCC(=O)O)NC(=O)[C@H](CO)NC(=O)[C@H](CCC(=O)O)NC(=O)[C@H](CCCNC(=N)N)NC(=O)[C@H](CCCNC(=N)N)NC(=O)[C@H](CC(C)C)NC(=O)[C@@H]1CCCN1C(=O)[C@H](CCCNC(=N)N)NC(=O)[C@@H]1CCCN1C(=O)[C@H](CCC(=O)O)NC(=O)[C@H](CC(C)C)NC(=O)[C@@H]1CCCN1C(=O)[C@@H](NC(=O)[C@H](CO)NC(=O)[C@H](C)NC(=O)[C@H](CCC(N)=O)NC(=O)[C@H](CC(N)=O)NC(=O)[C@H](Cc1c[nH]cn1)NC(=O)[C@H](CC(C)C)NC(=O)CCCC[C@@H]1SC[C@@H]2NC(=O)N[C@@H]21)C(C)C)C(=O)O` [Kir2.1 (inwardly rect. K+ channel)] (Biotin-LHNQASVPLEPRPLRRESEI-OH; C-terminus assumed), the Kd in test [2] (PDZ DLG1, PDZ Domain 1, 2, titration of the PL peptide, read-out: Peptide Optimal Conc (Kd, dissociation constant)) was 5000 nM.
In the case of `CC[C@H](C)[C@H](NC(=O)[C@H](C)NC(=O)[C@H](CC(C)C)NC(=O)[C@H](Cc1c[nH]c2ccccc12)NC(=O)[C@H](Cc1c[nH]cn1)NC(=O)[C@H](CCC(N)=O)NC(=O)[C@H](CC(C)C)NC(=O)[C@H](CCC(N)=O)NC(=O)[C@H](Cc1ccccc1)NC(=O)[C@H](CCC(N)=O)NC(=O)[C@H](CCCNC(=N)N)NC(=O)[C@@H](NC(=O)[C@H](CC(=O)O)NC(=O)[C@H](CCCNC(=N)N)NC(=O)[C@H](CCC(N)=O)NC(=O)[C@H](C)NC(=O)[C@@H](NC(=O)[C@H](CC(C)C)NC(=O)[C@H](Cc1c[nH]cn1)NC(=O)[C@H](Cc1c[nH]cn1)NC(=O)CCCC[C@@H]1SC[C@@H]2NC(=O)N[C@@H]21)C(C)C)[C@@H](C)CC)C(=O)O` [noradrenaline transporter] (Biotin-HHLVAQRDIRQFQLQHWLAI-OH; C-terminus assumed), the Kd in test [1] (Peptide Optimal Conc (Kd by titration of the PL peptide)) is 1000 nM.
`CC[C@H](C)[C@H](NC(=O)[C@H](CCCCN)NC(=O)[C@@H](NC(=O)[C@H](CO)NC(=O)[C@@H]1CCCN1C(=O)[C@H](Cc1ccccc1)NC(=O)[C@@H](NC(=O)[C@@H](NC(=O)[C@H](CCCNC(=N)N)NC(=O)[C@H](CCC(=O)O)NC(=O)[C@H](CC(C)C)NC(=O)[C@H](CC(C)C)NC(=O)[C@H](CC(C)C)NC(=O)[C@@H](NC(=O)CNC(=O)[C@@H](NC(=O)CCCC[C@@H]1SC[C@@H]2NC(=O)N[C@@H]21)C(C)C)[C@@H](C)O)C(C)C)[C@@H](C)CC)C(C)C)C(=O)N[C@@H](C)C(=O)N[C@H](C(=O)N[C@@H](CC(C)C)C(=O)N[C@H](C(=O)O)C(C)C)[C@@H](C)O` [Adenovirus E4 Type9]: the Kd in test [2] (PDZ DLG1, PDZ Domain 1, Protein Optimal Conc 0.5, read-out: Peptide Optimal Conc (Kd by titration of the PL peptide)) was 100 nM; in test [2] (PDZ DLG1, PDZ Domain 2, Protein Optimal Conc 0.3, read-out: Peptide Optimal Conc (Kd by titration of the PL peptide)), 30 nM; in test [3] (Protein Optimal Conc 0.5), 50 nM.
With `CC(C)C[C@H](NC(=O)[C@H](CC(=O)O)NC(=O)[C@H](CO)NC(=O)[C@H](CCC(=O)O)NC(=O)CNC(=O)[C@H](Cc1ccc(O)cc1)NC(=O)[C@H](CC(C)C)NC(=O)[C@H](C)NC(=O)[C@H](CO)NC(=O)[C@H](CO)NC(=O)[C@H](Cc1ccccc1)NC(=O)[C@H](C)NC(=O)[C@H](C)NC(=O)[C@H](Cc1ccc(O)cc1)NC(=O)[C@H](CC(=O)O)NC(=O)[C@H](CC(C)C)NC(=O)[C@H](C)NC(=O)CNC(=O)[C@@H]1CCCN1C(=O)[C@@H](NC(=O)CCCC[C@@H]1SC[C@@H]2NC(=O)N[C@@H]21)C(C)C)C(=O)O` [a-actinin 2] (Biotin-VPGALDYAAFSSALYGESDL-OH; C-terminus assumed), the Classification in test [4] is 1 (A450 nm 0-1).
As for `CSCC[C@H](NC(=O)[C@H](C)NC(=O)[C@H](CCCNC(=N)N)NC(=O)CNC(=O)[C@@H](NC(=O)[C@H](Cc1c[nH]c2ccccc12)NC(=O)[C@H](CCCNC(=N)N)NC(=O)CNC(=O)CCCC[C@@H]1SC[C@@H]2NC(=O)N[C@@H]21)[C@@H](C)O)C(=O)N[C@@H](CO)C(=O)N[C@@H](C)C(=O)N[C@@H](Cc1c[nH]c2ccccc12)C(=O)N[C@@H](CCCCN)C(=O)N1CCC[C@H]1C(=O)N[C@H](C(=O)N[C@@H](CCCNC(=N)N)C(=O)N[C@@H](CCCNC(=N)N)C(=O)N[C@@H](CCC(=O)O)C(=O)N[C@H](C(=O)N[C@@H](CCC(=O)O)C(=O)N[C@H](C(=O)O)C(C)C)[C@@H](C)O)[C@@H](C)O` [HPV E6 #35 (modified)] (Biotin-GRWTGRAMSAWKPTRRETEV-OH; C-terminus assumed), in test [5], the Classification is given as 1 (A450 nm 0-1). For the same molecule, the Kd in test [3] (setting [6]) amounted to 200 nM.
Regarding “PPATPSPRLALPAHHNATRL (Biotin-PPATPSPRLALPAHHNATRL) [Na+/Pi cotransporter 2]”, the Classification in test [4] is reported as 4 (A450 nm 3-4).
In the case of “A2AA_HUMAN (modified) (Biotin-HDFRRAFKKILARGDRKRIV; not fully specified)”, the Classification in test [5] is 1 (A450 nm 0-1).
